# Laboratory results from patent US20120046302A1, “METHODS OF TREATING CNS DISORDERS” (priority 2008, published 2012).
# Where a name gives a salt, the structure may show the parent alone.
# Assays:
# 5-HT2C = target: T1, 5-HT2C (Homo sapiens, UniProt P28335); settings: background; cited from earlier work
# T1 sequence (P28335 33-458): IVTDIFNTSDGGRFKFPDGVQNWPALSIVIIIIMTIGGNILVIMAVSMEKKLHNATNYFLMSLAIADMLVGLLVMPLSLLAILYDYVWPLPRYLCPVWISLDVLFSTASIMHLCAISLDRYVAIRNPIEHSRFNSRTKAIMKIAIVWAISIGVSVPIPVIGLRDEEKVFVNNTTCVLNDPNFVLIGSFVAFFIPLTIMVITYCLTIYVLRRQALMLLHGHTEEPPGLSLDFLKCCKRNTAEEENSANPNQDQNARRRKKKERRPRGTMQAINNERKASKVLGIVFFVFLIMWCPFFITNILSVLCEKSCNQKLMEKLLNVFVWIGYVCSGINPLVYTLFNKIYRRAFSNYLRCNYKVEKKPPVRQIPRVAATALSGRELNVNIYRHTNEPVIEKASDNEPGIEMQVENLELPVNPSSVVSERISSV
# histamine H1 = histamine H1 (Homo sapiens, UniProt P35367); settings: background; cited from earlier work
# [1] = test system: adrenergic receptor sites; settings: background; cited from earlier work
# NMDA receptor = settings: noncompetitive NMDA receptor antagonists; background; cited from earlier work
# [2] = test system: patients with bipolar I disorder experiencing a manic or mixed episode; assay: Multicenter, open-label study of memantine hydrochloride in acute treatment of hospitalized patients with bipolar I disorder (Example 1); assay type: in vivo, human; settings: for MRS Total Score, Change at Day 21 (LOCF), Mean ± SEM / YMRS Total Score, Change at Day 21 (LOCF), Mean ± SEM / MRS Total Score, Change at Day 21 (OC), Mean ± SEM / YMRS Total Score, Change at Day 21 (OC), Mean ± SEM / CGI-I Rating, Day 21, Mean ± SEM / CGI-S Rating, Change at Day 21, Mean ± SEM / MADRS Total Score, Change at Day 21, Mean ± SEM / PANSS Total Score, Change at Day 21, Mean ± SEM / PANSS-EC Score, Change at Day 21, Mean ± SEM: 21 days; for MRS Total Score, Change at Day 21 (LOCF), Mean ± SEM / YMRS Total Score, Change at Day 21 (LOCF), Mean ± SEM / CGI-I Rating, Day 21, Mean ± SEM / CGI-S Rating, Change at Day 21, Mean ± SEM / MADRS Total Score, Change at Day 21, Mean ± SEM / PANSS Total Score, Change at Day 21, Mean ± SEM / PANSS-EC Score, Change at Day 21, Mean ± SEM / MRS Response, % of patients / MRS Response, n of patients / YMRS Response, % of patients / YMRS Response, n of patients: ITT; for MRS Total Score, Change at Day 21 (OC), Mean ± SEM / YMRS Total Score, Change at Day 21 (OC), Mean ± SEM: observed cases; for CGI-I Rating, Day 21, Mean ± SEM / CGI-S Rating, Change at Day 21, Mean ± SEM / MADRS Total Score, Change at Day 21, Mean ± SEM / PANSS Total Score, Change at Day 21, Mean ± SEM / PANSS-EC Score, Change at Day 21, Mean ± SEM / MRS Response, % of patients / MRS Response, n of patients / YMRS Response, % of patients / YMRS Response, n of patients: LOCF; for MRS Response, % of patients / MRS Response, n of patients / YMRS Response, % of patients / YMRS Response, n of patients: Day 21, response = ≧50% reduction in total score from baseline
# From the text: The entrance criteria for the patients included: Hospitalized adult inpatients, with bipolar I disorder by DSM-IV-TR criteria • Manic or mixed episode: ≧20 on the Young Mania Rating Scale (YMRS), with and without psychotic features; • Diagnosis based on clinical evaluation and confirmed using the Structured Clinical Interview for DSM Disorders. The following comorbid psychiatric diagnoses were allowed to enroll: Attention deficit hyperactivity disorder [ADHD], conduct disorder, obsessive-compulsive disorder, anxiety disorders, and substance abuse. Additional psychotropic medications were not allowed. Patients were assigned to 21-days of treatment in one of three groups: Group 1, 20 mg memantine hydrochloride per day (range 20-30 mg memantine per day); Group 2, 30 mg memantine hydrochloride per day (range 20-40 mg memantine per day); Group 3, 40 mg memantine hydrochloride per day (range 30-50 mg memantine per day). […] Dose modification was continued to study completion or early termination. Efficacy measures included the Young Mania Rating Scale (YMRS) and the Mania Rating Scale (MRS) (≧50% reduction in total score from baseline). The change from baseline was also assessed using the Positive and Negative Syndrome Scale (PANSS) in patients with psychiatric symptoms, Positive and Negative Syndrome Scale-Excited Component (PANSS-EC), Clinical Global Impression Severity (CGI-S) and Improvement (CGI-I) scores, and the change from baseline in the Montgomery Asberg Depression Rating Scale (MADRS). […] The mean duration of treatment was 16.1 days (Group I), 14.7 days (Group 2) and 17.3 days (Group 3).
# [3] = test system: ICV ouabain-induced motoric hyperactivity; settings: ouabain treated (ICV) versus sham 53.1±SD 50.0; El-Mallakh et al. 2003; cited from earlier work
# [4] = Group 1: 20 mg per day (range 20-30 mg), n=12
# [5] = Group 1: 20 mg per day (range 20-30 mg), n=6
# [6] = Group 2: 30 mg per day (range 20-40 mg), n=11
# [7] = Group 2: 30 mg per day (range 20-40 mg), n=6
# [8] = Group 3: 40 mg per day (range 30-50 mg), n=10
# [9] = Group 3: 40 mg per day (range 30-50 mg), n=8
# Chain of histamine H1 (P35367 whole entry): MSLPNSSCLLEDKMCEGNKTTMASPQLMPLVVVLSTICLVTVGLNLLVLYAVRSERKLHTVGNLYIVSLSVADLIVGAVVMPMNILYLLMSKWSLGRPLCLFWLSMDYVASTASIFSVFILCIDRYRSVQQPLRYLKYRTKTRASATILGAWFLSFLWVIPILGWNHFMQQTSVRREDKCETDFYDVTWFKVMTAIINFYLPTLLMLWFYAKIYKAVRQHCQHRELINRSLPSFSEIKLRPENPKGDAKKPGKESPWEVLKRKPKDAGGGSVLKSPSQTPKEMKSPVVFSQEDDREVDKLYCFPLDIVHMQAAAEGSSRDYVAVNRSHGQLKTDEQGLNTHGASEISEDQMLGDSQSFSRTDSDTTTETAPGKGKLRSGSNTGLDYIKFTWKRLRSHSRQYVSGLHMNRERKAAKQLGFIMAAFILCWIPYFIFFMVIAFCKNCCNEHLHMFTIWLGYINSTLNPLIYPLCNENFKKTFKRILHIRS
smiles,measurement,setting,value
"CN(C)C(=O)N[C@H]1CC[C@H](CCN2CCN(c3cccc(Cl)c3Cl)CC2)CC1 [Cariprazine hydrochloride, trans-1-{4-[2-[4-(2,3-dichlorophenyl)-piperazin-1-yl]-ethyl]-cyclohexyl}-3,3-dimethyl-urea hydrochloride]",Potency at 5-HT2C receptor site (in words),5-HT2C,low potency
same,Potency at histamine H1 receptor site (in words),histamine H1,low potency
same,Potency at adrenergic receptor sites (in words),[1],low potency
"CC12CC3CC(C)(C1)CC(N)(C3)C2 [Memantine, 1-amino-3,5-dimethyl adamantane]",Affinity for the NMDA receptor (in words),NMDA receptor,moderate affinity
CC12CC3CC(C)(C1)CC(N)(C3)C2 [memantine hydrochloride],"MRS Total Score, Change at Day 21 (LOCF), Mean ± SEM",[2]; [4],−9.8 ± 2.2
same,"YMRS Total Score, Change at Day 21 (LOCF), Mean ± SEM",[2]; [4],−9.5 ± 2.8
same,"MRS Total Score, Change at Day 21 (OC), Mean ± SEM",[2]; [5],−15.3 ± 1.7
same,"YMRS Total Score, Change at Day 21 (OC), Mean ± SEM",[2]; [5],−17.0 ± 1.9
same,"CGI-I Rating, Day 21, Mean ± SEM","[2]; Group 1: 20 mg per day, n=12",3.3 ± 0.5
same,"CGI-S Rating, Change at Day 21, Mean ± SEM","[2]; Group 1: 20 mg per day, n=12",−0.8 ± 0.3
same,"MADRS Total Score, Change at Day 21, Mean ± SEM","[2]; Group 1: 20 mg per day, n=12",−3.4 ± 1.8
same,"PANSS Total Score, Change at Day 21, Mean ± SEM","[2]; Group 1: 20 mg per day, n=12",−5.1 ± 3.9
same,"PANSS-EC Score, Change at Day 21, Mean ± SEM","[2]; Group 1: 20 mg per day, n=12",−0.7 ± 1.5
same,"MRS Response, % of patients","[2]; Group 1: 20 mg per day, n=12",50.0%
same,"MRS Response, n of patients","[2]; Group 1: 20 mg per day, n=12",6 n
same,"YMRS Response, % of patients","[2]; Group 1: 20 mg per day, n=12",50.0%
same,"YMRS Response, n of patients","[2]; Group 1: 20 mg per day, n=12",6 n
same,"MRS Total Score, Change at Day 21 (LOCF), Mean ± SEM",[2]; [6],−7.4 ± 2.6
same,"YMRS Total Score, Change at Day 21 (LOCF), Mean ± SEM",[2]; [6],−6.4 ± 3.8
same,"MRS Total Score, Change at Day 21 (OC), Mean ± SEM",[2]; [7],−13.0 ± 2.1
same,"YMRS Total Score, Change at Day 21 (OC), Mean ± SEM",[2]; [7],−15.5 ± 1.5
same,"CGI-I Rating, Day 21, Mean ± SEM","[2]; Group 2: 30 mg per day, n=11",3.6 ± 0.5
same,"CGI-S Rating, Change at Day 21, Mean ± SEM","[2]; Group 2: 30 mg per day, n=11",−0.7 ± 0.4
same,"MADRS Total Score, Change at Day 21, Mean ± SEM","[2]; Group 2: 30 mg per day, n=11",0.0 ± 2.7
same,"PANSS Total Score, Change at Day 21, Mean ± SEM","[2]; Group 2: 30 mg per day, n=11",−1.5 ± 5.8
same,"PANSS-EC Score, Change at Day 21, Mean ± SEM","[2]; Group 2: 30 mg per day, n=11",−0.5 ± 1.8
same,"MRS Response, % of patients","[2]; Group 2: 30 mg per day, n=11",27.3%
same,"MRS Response, n of patients","[2]; Group 2: 30 mg per day, n=11",3 n
same,"YMRS Response, % of patients","[2]; Group 2: 30 mg per day, n=11",45.5%
same,"YMRS Response, n of patients","[2]; Group 2: 30 mg per day, n=11",5 n
same,"MRS Total Score, Change at Day 21 (LOCF), Mean ± SEM",[2]; [8],−7.2 ± 2.0
same,"YMRS Total Score, Change at Day 21 (LOCF), Mean ± SEM",[2]; [8],−7.9 ± 2.4
same,"MRS Total Score, Change at Day 21 (OC), Mean ± SEM",[2]; [9],−9.3 ± 1.8
same,"YMRS Total Score, Change at Day 21 (OC), Mean ± SEM",[2]; [9],−10 ± 2.3
same,"CGI-I Rating, Day 21, Mean ± SEM","[2]; Group 3: 40 mg per day, n=10",2.9 ± 0.5
same,"CGI-S Rating, Change at Day 21, Mean ± SEM","[2]; Group 3: 40 mg per day, n=10",−0.6 ± 0.3
same,"MADRS Total Score, Change at Day 21, Mean ± SEM","[2]; Group 3: 40 mg per day, n=10",−3.3 ± 1.7
same,"PANSS Total Score, Change at Day 21, Mean ± SEM","[2]; Group 3: 40 mg per day, n=10",−7.7 ± 3.8
same,"PANSS-EC Score, Change at Day 21, Mean ± SEM","[2]; Group 3: 40 mg per day, n=10",−0.7 ± 1.4
same,"MRS Response, % of patients","[2]; Group 3: 40 mg per day, n=10",10.0%
same,"MRS Response, n of patients","[2]; Group 3: 40 mg per day, n=10",1 n
same,"YMRS Response, % of patients","[2]; Group 3: 40 mg per day, n=10",30.0%
same,"YMRS Response, n of patients","[2]; Group 3: 40 mg per day, n=10",3 n
same,Effectiveness in the treatment of acute mania associated with bipolar disorder (in words),[2]; overall conclusion of Example 1,surprisingly effective
"CC1(C)CC(C)(C)CC(C)(N)C1 [neramexane, 1-amino-1,3,3,5,5-pentamethylcyclohexane]",Affinity for the NMDA receptor (in words),NMDA receptor,moderate affinity
C[C@@H]1O[C@@H](O[C@H]2C[C@@H](O)[C@]3(CO)[C@H]4[C@H](O)C[C@]5(C)[C@@H](C6=CC(=O)OC6)CC[C@]5(O)[C@@H]4CC[C@]3(O)C2)[C@H](O)[C@H](O)[C@H]1O [ouabain],Open field exploratory activity,[3],258.7±316.6 squares traversed
